Measured values from patent publication US8952054B2, “Small molecule inhibitors of MUC1 and methods of identifying the same” (Dana-Farber Cancer Institute, Inc., priority 2010, dated 2015).
Entries after “also recorded” stand apart in the source; their conditions may differ.

Legend:
His-MUC1-CD = target: T1, His-MUC1-CD (Homo sapiens, UniProt P15941); assay: In-gel in vitro MUC1-CD dimerization/oligomerization assay (non-reducing SDS-PAGE, anti-MUC1-C immunoblot); format: biochemical; details: 1 h at room temperature; for formation of MUC1-CD dimers, soluble protein: 1 mM compound
T1 construct: made in house
T1 sequence (P15941 1184-1255): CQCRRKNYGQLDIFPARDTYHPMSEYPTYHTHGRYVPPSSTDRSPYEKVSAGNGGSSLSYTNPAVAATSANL
Experimental: (§1) FIGS. 1A-D. MUC1/CQC peptide blocks MUC1 oligomerization. (FIG. 1A) Schematic representation of the MUC1-C subunit and the 72-amino acid sequence of MUC1-CD (SEQ ID NO: 1) are shown. The N-terminal 15 amino acids (shaded sequence) MUC1/CQC (SEQ ID NO: 10) and mutated MUC1/AQA (SEQ ID NO: 11) peptides were synthesized with the poly-dArg transduction domain. (FIG. 1B) His-MUC1-CD (1.4 mg/ml) was immobilized on a sensor chip in a BIAcore. MUC1/CQC was injected over the chip at 10 μM. Raw binding data were analyzed by BIAevaluation software version 3.0 and fit to a 1:1 Languir binding model. (FIG. 1C) Purified His-MUC1-CD (1.5 mg/ml) was incubated with PBS, 200 μM MUC1/CQC or 200 μM MUC1/AQA for 1 h at room temperature. The proteins were separated in a non-reducing SDS-polyacrylamide gel and analyzed by immunoblotting with anti-MUC1-C. (FIG. 1D) 293 cells were transiently transfected to express an empty vector or GFP-MUC1-CD and Flag-MUC1-CD. At 48 h after transfection, the cells were treated with 5 μM MUC1/CQC or MUC1/AQA for 3 d. The cells were then harvested for immunoblotting with anti-MUC1-C (left panel). Whole cell lysates were also precipitated with anti-Flag and the precipitates were immunoblotted with the indicated antibodies (right panels).
FIG. 7—GO-201 blocks MUC1 oligomerization. Purified His-MUC1-CD was incubated with PBS (control), GO-201, or CP-1 for 1 hr at room temperature. The proteins were separated in a non-reducing SDS-polyacrylamide gel (SDS-PAGE) and analyzed by immunoblotting with anti-MUC1-C antibodies. The formation of dimers and tetramers was inhibited by incubation with GO-201.
FIGS. 12A-D—Apigenin is an inhibitor of MUC1-CD dimerization in vitro and in cells. (FIG. 12A) Structures of apigenin and its analogue baicalein. Using the in vitro screening assay, dimerization of MUC1-CD was assessed in the presence of 100 μM apigenin or 100 μM baicalein each dissolved in 0.1% DMSO. The results (mean±SD of 3 determinations) are expressed as percentage of control dimerization in the presence of DMSO alone. (FIG. 12B) MUC1-CD dimerization was assessed in the presence of the indicated concentrations of apigenin in the in vitro screening assay. […] (FIG. 12C) Soluble MUC1-CD was incubated in the presence of 1% DMSO, 1 mM apigenin or 1 mM baicalein for 1 h at room temperature. Monomers and dimmers were assessed by electrophoresis in a non-reducing gel and immunoblotting with anti-MUC1-C. (FIG. 12D) 293 cells were transiently transfected to express an empty vector or GFP-MUC1-CD and Flag-MUC1-CD. […]
Purified His-tagged MUC1-CD protein also forms dimers and oligomers when incubated in a buffer in vitro, and these can be detected by electrophoresis in polyacrylamide gels. […] Following extensive washings, the proteins are separated in a non-reducing SDS-polyacrylamide gel and analyzed by immunoblotting with anti-MUC1-CD antibody.
As a positive control for validation of this assay for secondary screening, purified His-MUC1-CD is incubated with either PBS or with GO-201 (CQC peptide) for 1 hr at room temperature. The proteins are separated in a non-reducing SDS-polyacrylamide gel and analyzed by immunoblotting with anti-MUC1-CD antibody.
Purified His-tagged MUC1-CD protein forms dimers and oligomers when incubated in a buffer in vitro, as detected by electrophoresis in polyacrylamide gels. […] Following extensive washings, the proteins are separated in a non-reducing SDS-polyacrylamide gel and analyzed by immunoblotting with anti-MUC1-CD antibody. […]

[1] = target: T2, GFP-MUC1-CD and Flag-MUC1-CD (Homo sapiens, UniProt P15941); assay: Inhibition of dimerization of MUC1-CD in cyto (coprecipitation in transfected 293 cells); format: cell-based; details: for formation of MUC1-CD dimers (anti-Flag precipitates, anti-GFP blot): 75 μM for 3 days
T2 construct: expressed in transfected cells; host or cells: HEK 293 cells (no endogenous MUC1)
T2 sequence (P15941 1184-1255 limits assumed): T1 sequence (P15941 1184-1255)
Experimental: as §1
FIG. 8—293 cells transiently transfected to express an empty vector or GFP-MUC1-CD and Flag-MUC1-CD. At 48 he after transfection, cells were left untreated (control), or treated with 5 μmol/L GO-201 or CP-1 each day for 3 days. The cells were then harvested for immunoblotting with anti-MUC1-C (left). Whole-cell lysates were also precipitated with anti-Flag and the precipitates were immunoblotted with the indicated antibodies (right).
FIGS. 12A-D—Apigenin is an inhibitor of MUC1-CD dimerization in vitro and in cells. (FIG. 12A) Structures of apigenin and its analogue baicalein. Using the in vitro screening assay, dimerization of MUC1-CD was assessed in the presence of 100 μM apigenin or 100 μM baicalein each dissolved in 0.1% DMSO. The results (mean±SD of 3 determinations) are expressed as percentage of control dimerization in the presence of DMSO alone. (FIG. 12B) MUC1-CD dimerization was assessed in the presence of the indicated concentrations of apigenin in the in vitro screening assay. […] (FIG. 12C) Soluble MUC1-CD was incubated in the presence of 1% DMSO, 1 mM apigenin or 1 mM baicalein for 1 h at room temperature. Monomers and dimmers were assessed by electrophoresis in a non-reducing gel and immunoblotting with anti-MUC1-C. (FIG. 12D) 293 cells were transiently transfected to express an empty vector or GFP-MUC1-CD and Flag-MUC1-CD. At six hours after transfection, the cells were left untreated, and treated with 75 μM apigenin or baicalein for 3 days. Whole-cell lysates were precipitated with anti-Flag, and the precipitates were immunoblotted with the indicated antibodies.
Two different versions of MUC1-CD vectors have been generated for transformation of cells: GFP-MUC1-CD and Flag-MUC1-CD. […] At 48 hr post-transfection, cells are incubated with the selected compounds from the primary and/or secondary screening assays. Cells are then harvested and used for immunoblotting with anti-MUC1-C. Total cell lysates are subjected to immunoprecipitation with anti-GFP antibody and the adsorbates are analyzed by immunoblotting with anti-Flag antibody.
293 cells were transfected with vectors expressing GFP, GFP-MUC1-CD or Flag-MUC1-CD in the presence of Lipofectamine as described (Leng et al., 2007).
The inventors generated two different versions of MUC1-CD vectors for transfecting into cells: GFP-MUC1-CD and Flag-MUC1-CD. […] At 48 hours post-transfection, cells are incubated with selected compounds. The cells were harvested for immunoblotting with anti-MUC1-C. Total cell lysates are subjected to immunoprecipitation with anti-GFP antibody and the adsorbates are analyzed by immunoblotting with anti-Flag antibody. An inhibitor of MUC1-CD dimerization will inhibit dimerization of MUC1-CD in cyto. […]

[2] = transfected 293 cells, 5 μM peptide for 3 d

Compound | formation of MUC1-CD dimers, soluble protein (His-MUC1-CD) | formation of MUC1-CD dimers (anti-Flag precipitates, anti-GFP blot) ([1]; transfected 293 cells) | His-MUC1-CD oligomer formation (His-MUC1-CD; 200 μM peptide) | His-MUC1-CD oligomer formation (His-MUC1-CD; GO-201 positive control) | interaction between Flag-MUC1-CD and GFP-MUC1-CD [1, 2] | interaction between Flag-MUC1-CD and GFP-MUC1-CD ([1]; transfected HEK 293 cells, 5 μM GO-201 or CP-1 each day for 3 days) | interaction between Flag-MUC1-CD and GFP-MUC1-CD ([1]; transfected HEK 293 cells, 5 mM GO-201 as printed)
O=c1cc(-c2ccc(O)cc2)oc2cc(O)cc(O)c12 [Apigenin, 4′,5,7-trihydroxyflavone] | completely blocked | completely blocked | – | – | – | – | –
O=c1cc(-c2ccccc2)oc2cc(O)c(O)c(O)c12 [Baicalein, 5,6,7-trihydroxyflavone, reference compound] | little effect | not | – | – | – | – | –
CC[C@H](C)[C@H](NC(=O)[C@H](CC(=O)O)NC(=O)[C@H](CC(C)C)NC(=O)[C@H](CCC(N)=O)NC(=O)CNC(=O)[C@H](Cc1ccc(O)cc1)NC(=O)[C@H](CC(N)=O)NC(=O)[C@H](CCCCN)NC(=O)[C@H](CCCNC(=N)N)NC(=O)[C@H](CCCNC(=N)N)NC(=O)[C@H](CS)NC(=O)[C@H](CCC(N)=O)NC(=O)[C@H](CS)NC(=O)[C@@H](CCCNC(=N)N)NC(=O)[C@@H](CCCNC(=N)N)NC(=O)[C@@H](CCCNC(=N)N)NC(=O)[C@@H](CCCNC(=N)N)NC(=O)[C@@H](CCCNC(=N)N)NC(=O)[C@@H](CCCNC(=N)N)NC(=O)[C@@H](CCCNC(=N)N)NC(=O)[C@@H](CCCNC(=N)N)NC(=O)[C@H](N)CCCNC(=N)N)C(=O)N[C@@H](Cc1ccccc1)C(=O)N1CCC[C@H]1C(=O)O [MUC1/CQC] | – | – | substantially decreased oligomer formation | substantially decreases oligomer formation; also recorded: inhibited | disruption of the interaction | disruption of the interaction | disruption of the interaction
MUC1/AQA: control peptide in which the CQC motif was altered to AQA (SEQ ID NO: 11) (AQARRKNYGQLDIFP) [reference compound] | – | – | little if any effect | – | no apparent effect | – | –
